From patent US4226610A, “Herbicidal compounds, preparation thereof and herbicides containing the same” (Meiji Selka Kaisha, Ltd., priority 1978, dated 1980)
Structures can show the parent of a compound that is named as a salt.

Experiments:
[1] = test system: oak; assay: Experiment 3 foliar application to naturally growing shrubs; assay type: in vivo, Quercus serrata Thunb; conditions: after 3 months
Procedure, shortened: (§1)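 Naturally growing shrubs were sprayed on the foliage at 150 liter per 10 are. Plant kill was then scored from 0 to 5 at 1 and 3 months, and reproduction was graded − to +++ at 3 months.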

[2] = test system: kumaichigo; assay: Experiment 2 foliar application in Japanese cypress afforested land; assay type: in vivo, Rubus crataegifolius Bunge; conditions: 0.063%; after 30 days; monosodium salt
Procedure, shortened: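 Field foliar spray on shrubs in Japanese cypress afforested land at 150 liter per 10 are, with compounds at prescribed concentrations. Killing index scored from 0 (no effect) to 5 (death) at 30 days and 3 months. Plant heights ranged from about 50 to 100 cm.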

[3] = test system: Japanese bush cranberry; assay: Experiment 3 foliar application to naturally growing shrubs; assay type: in vivo, Viburnum dilatatum Thunb.; conditions: after 3 months
Procedure, shortened: as §1

[4] = test system: cockspar grass; assay: Experiment 1 foliar application to naturally growing weeds; assay type: in vivo, Echinochloa Crusgalli P. Beauv.; conditions: monosodium salt; for Reproduction-inhibiting effect: 2 months
Procedure, shortened: (§2)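 Dilute compounds to prescribed concentrations; add 0.1% octylphenyl polyoxyethanol; spray foliage of in-situ weeds at 150 liter per 10 are. Score killing 0–5 on day 21. Score reproduction (-) to (+++) at month 2 (cockspar grass) or month 4 (chigaya, azumanezasa, warunasubi).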

[5] = test system: purple nutsedge; assay: as above; assay type: in vivo, Cyperus rotundus L.; conditions: 4 months, monosodium salt
Procedure, shortened: (§3)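 Naturally growing weeds receive a foliar spray of compound at prescribed concentrations, 150 liter per 10 are, containing 0.1% octylphenyl polyoxyethanol. Kill is rated 0 (no effect) to 5 (death) after 21 days. Regrowth is rated (-) to (+++) after 4 months, or 2 months for cockspar grass.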

[6] = test system: kiichigo; assay: Experiment 3 foliar application to naturally growing shrubs; assay type: in vivo, Rubus palmatsu Thunb. forma coptophyllus Makino; conditions: after 3 months
Procedure, shortened: as §1

[7] = test system: chigaya; assay: Experiment 1 foliar application to naturally growing weeds; assay type: in vivo, Imperata cylindrica Beauv.; conditions: 4 months
Procedure, shortened: as §2

[8] = test system: Japanese prickly ash; assay: Experiment 3 foliar application to naturally growing shrubs; assay type: in vivo, Xanthoxylum piperitum DC.; conditions: after 3 months
Procedure, shortened: as §1

[9] = test system: chestnut; assay: Experiment 2 foliar application in Japanese cypress afforested land; assay type: in vivo, Castanea crenata Sieb et Zucc.; conditions: 0.063%; after 30 days; monosodium salt
Experimental: (§4) The detail of the assessment made in the following Experiments of the invention was as follows:
(§5) The compounds of the invention and other compounds listed in Table 4. were diluted to prescribed concentrations and sprayed to shrubs by foliar application in a Japanese cypress afforested land in an amount of 150 liter per 10 are.
(§6) After 30 days and 3 months, the killing index (0, no effect; 5, death) was determined.
(§7) The heights of plants were 50-70 cm. for Japanese cypress, about 50 cm. for chestnut, 50-90 cm. for miyakozasa, about 100 cm. for eulalia and 70-100 cm. for kumaichigo, respectively.

[10] = test system: warunasubi; assay: Experiment 1 foliar application to naturally growing weeds; assay type: in vivo, Solanum carolinensis L.; conditions: 4 months, monosodium salt
Procedure, shortened: as §2

[11] = test system: hedge bindweed; assay: as above; assay type: in vivo, Calystegis hederacea Wall.; conditions: 4 months, monosodium salt
Procedure, shortened: as §3

[12] = test system: yamazakura; assay: Experiment 3 foliar application to naturally growing shrubs; assay type: in vivo, Prunus donarium Sieb. var. spontanae Makino; conditions: after 3 months
Procedure, shortened: as §1

[13] = test system: lace shrub; assay: as above; assay type: in vivo, Stephanandra incisa Zabel; conditions: after 3 months
Procedure, shortened: as §1

[14] = test system: water hyacinth; assay: Experiment 5 foliar application to water hyacinths; assay type: in vivo, Eichhornia crassipes Solms; conditions: 3 months, listed as DL-AMPB monosodium salt, monosodium salt
Text: as §4
Four months after treatment, evaluation was made for inhibition of reproduction expressed in terms of symbols ranging from (-) to (+++) where (-) means no reproduction, namely complete suppression of reproduction, (±) remarkable suppression of reproduction; (+) considerable suppression of reproduction; (++) medium supprestion of reproduction; and (+++) no suppression of reproduction.
Water was placed in 20 cm.×30 cm. plastic vessels and a liquid fertilizer was added thereto. Two water hyacinths were floated in each vessel.
0.1 or 0.2% aqueous solutions of each of the compounds of the invention listed in Table 7 were sprayed by foliar application in an amount of 100 liter per 10 are. As a surfactant, 0.1% of octylphenyl polyoxyethanol was added.
The killing index (0, no effect; 5, death) after 21 days and 3 months, and the reproduction-inhibiting effect (-, no reproduction; +++, maximum reproduction) after 3 months were determined.

[15] = test system: white clover; assay: Experiment 1 foliar application to naturally growing weeds; assay type: in vivo, Trifolium repens L.; conditions: monosodium salt; for Reproduction-inhibiting effect: 4 months
Procedure, shortened: as §3

[16] = test system: azumanezasa; assay: as above; assay type: in vivo, Pleioblastus Chino Makino; conditions: 4 months
Procedure, shortened: as §2

[17] = test system: torch azalea; assay: Experiment 3 foliar application to naturally growing shrubs; assay type: in vivo, Rhododendoron Kaempferi Planch.; conditions: after 3 months
Procedure, shortened: as §1

[18] = test system: eulalia; assay: Experiment 2 foliar application in Japanese cypress afforested land; assay type: in vivo, Miscanthus sinensis Andress.; design: key: 0 = no effect, 5 = death; conditions: 0.125%; after 30 days; monosodium salt
Experimental: as §4, §5, §6, §7

[19] = test system: manna grass; assay: Experiment 1 foliar application to naturally growing weeds; assay type: in vivo, Digitaria adsceudes Henr.; conditions: monosodium salt; for Reproduction-inhibiting effect: 2 months
Procedure, shortened: as §2

[20] = test system: yabugarashi; assay: as above; assay type: in vivo, Cayratia japonica Houtt.; conditions: 4 months, monosodium salt
Procedure, shortened: as §3

With `CP(=O)(O)CCC(N)C(=O)O` (racemic) [DL-2-Amino-4-methylphosphinobutanoic acid monosodium salt] the Reproduction-inhibiting ([1]; 0.05%, monosodium salt) was “+++”, the Reproduction-inhibiting ([1]; 0.1%, monosodium salt) was “++” and the Reproduction-inhibiting ([1]; 0.2%) was “-”. For the same compound, the Killing index [2] was 1.5, the Reproduction-inhibiting ([3]; 0.05%) was “+++” and the Reproduction-inhibiting ([3]; 0.1%) was “++”. The Reproduction-inhibiting ([3]; 0.2%, monosodium salt) was “+ +”, the Reproduction-inhibiting effect ([4]; 0.05%) was “+ ++” and the Reproduction-inhibiting effect ([4]; 0.1%) was “++”. The Reproduction-inhibiting effect ([4]; 0.2%) was “±”, the “Killing index of Upperground parts” value ([4]; 0.2%, 21 days) was 4.5 and the Reproduction-inhibiting effect ([5]; 0.05%) was “+++”. For the same compound, the Reproduction-inhibiting effect ([5]; 0.1%) was “+++”, the Reproduction-inhibiting effect ([5]; 0.2%) was “+” and the Reproduction-inhibiting ([6]; 0.05%, monosodium salt) was “+++”. The Reproduction-inhibiting ([6]; 0.1%, monosodium salt) was “++”, the Reproduction-inhibiting ([6]; 0.2%) was “-” and the Reproduction-inhibiting effect ([7]; 0.05%, monosodium salt) was “++”. The Reproduction-inhibiting effect ([7]; 0.1%, monosodium salt) was “++”, the Reproduction-inhibiting effect ([7]; 0.2%) was “-” and the Reproduction-inhibiting ([8]; 0.05%, monosodium salt) was “+++”. The Reproduction-inhibiting ([8]; 0.1%, monosodium salt) was “++”, the Reproduction-inhibiting ([8]; 0.2%) was “-” and the Killing index [9] was 0.5. The Reproduction-inhibiting effect ([10]; 0.05%) was “+++”, the Reproduction-inhibiting effect ([10]; 0.1%) was “+++” and the Reproduction-inhibiting effect ([10]; 0.2%) was “+”. The Reproduction-inhibiting effect ([11]; 0.05%) was “+++”, the Reproduction-inhibiting effect ([11]; 0.1%) was “+++” and the Reproduction-inhibiting effect ([11]; 0.2%) was “+++”. For the same compound, the Reproduction-inhibiting ([12]; 0.05%, monosodium salt) was “+++”, the Reproduction-inhibiting ([12]; 0.1%, monosodium salt) was “++” and the Reproduction-inhibiting ([12]; 0.2%) was “-”. For the same compound, the Reproduction-inhibiting ([13]; 0.05%, monosodium salt) was “+++”, the Reproduction-inhibiting ([13]; 0.1%, monosodium salt) was “++” and the Reproduction-inhibiting ([13]; 0.2%) was “-”. For the same compound, the Reproduction-inhibiting effect ([14]; 0.1%) was “++”, the Reproduction-inhibiting effect ([14]; 0.2%) was “±” and the Reproduction-inhibiting effect ([15]; 0.05%) was “+++”. The Reproduction-inhibiting effect ([15]; 0.1%) was “+++”, the Reproduction-inhibiting effect ([15]; 0.2%) was “+” and the “Killing index of Upperground parts” value ([15]; 0.2%, 21 days) was 4.5. The Reproduction-inhibiting effect ([16]; 0.05%, monosodium salt) was “+++”, the Reproduction-inhibiting effect ([16]; 0.1%, monosodium salt) was “+” and the Reproduction-inhibiting effect ([16]; 0.2%) was “-”. The Reproduction-inhibiting ([17]; 0.05%, monosodium salt) was “+++”, the Reproduction-inhibiting ([17]; 0.1%, monosodium salt) was “++” and the Reproduction-inhibiting ([17]; 0.2%) was “-”. The Killing index [18] was 2.5, the Reproduction-inhibiting effect ([19]; 0.05%) was “+++” and the Reproduction-inhibiting effect ([19]; 0.1%) was “++”. The Reproduction-inhibiting effect ([19]; 0.2%) was “±”, the “Killing index of Upperground parts” value ([19]; 0.2%, 21 days) was 4.5 and the Reproduction-inhibiting effect ([20]; 0.05%) was “+++”. The Reproduction-inhibiting effect ([20]; 0.1%) was “+++” and the Reproduction-inhibiting effect ([20]; 0.2%) was “++”.
